Assay results published in US10030016B2 (Sunesis Pharmaceuticals, Inc., priority 2009, dated 2018).
Counter-ions that a name gives are not always drawn. Like-named read-outs stand apart in the source and are kept apart here.

Tests used:
PDK1 = PDK1 (Homo sapiens (Human), UniProt O15530); assay: PDK1 kinase assay (coupled PDK1/AKT/FAM-crosstide assay, IMAP fluorescence polarization); format: biochemical
Procedure, shortened: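 Inhibition is derived by 4-parameter fitting of ΔmP from an IMAP fluorescence polarization read of FAM-crosstide (100 nM) phosphorylation. The cascade ran 30 min at 25 °C with 40 μM ATP, using insect-cell GST-PDK1 51-359 (0.75 nM) driving 10 nM unphosphorylated AKT2 140-467-PIFtide fusion.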

[1] = tested on: phospho-akt (Thr308) in PC-3 cells; assay: Inhibition of phospho-akt (Thr308) in PC-3 cells, MSD phospho-akt 308 ELISA kit; format: cell-based; conditions: Homo sapiens, 2 hours, no serum, read-out: EC50
Procedure, shortened: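 Read-out is MSD electrochemiluminescence of Akt phosphorylated at Thr308 in lysates of PC-3 cells treated 2 h with compound in serum-free medium. Wortmannin at 5 μM defined the low control and DMSO the high control.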

[2] = inhibition of P308 Akt in PC-3 cells using MSD
[3] = inhibition of phospo-PDK1 in vitro
[4] = inhibition of P308 Akt in PC-3 cells, MSD
[5] = PC-3, 2 h, inhibition of P308 Akt in PC-3 cells, MSD

Chain of PDK1 (O15530 51-359): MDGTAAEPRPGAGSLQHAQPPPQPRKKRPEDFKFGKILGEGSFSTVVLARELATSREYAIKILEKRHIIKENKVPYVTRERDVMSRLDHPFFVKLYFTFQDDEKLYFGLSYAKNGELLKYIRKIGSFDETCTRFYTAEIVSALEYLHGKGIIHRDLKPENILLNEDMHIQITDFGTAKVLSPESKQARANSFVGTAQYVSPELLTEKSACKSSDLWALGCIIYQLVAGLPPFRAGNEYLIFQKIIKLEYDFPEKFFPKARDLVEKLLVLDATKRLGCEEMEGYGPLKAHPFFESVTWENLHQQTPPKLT

Structure (SMILES) | IC50 (PDK1; inhibition of PDK1 in vitro) | EC50 [1, 2] | IC50 (PDK1; [3]) | EC50 [1, 4] | EC50 [1, 5]
C[C@H](NC(=O)c1cc(C#N)cnc1N[C@H](C)c1ccc(-c2cnc3[nH]nc(N)c3n2)cc1)c1ccc(F)cc1 [Example 435, 2-{(R)-1-[4-(3-Amino-1H-pyrazolo[3,4-b]pyrazin-5-yl)-phenyl]-ethylamino}-5-cyano-N-[(S)-1-(4-fluoro-phenyl)-ethyl]-nicotinamide] | < 100 nM | < 1000 nM | – | – | –
C[C@H](NC(=O)c1nc(C#N)cnc1N[C@H](C)c1ccc(-c2cnc3[nH]nc(N)c3n2)cc1)c1ccc(F)c(F)c1 [Example 411, 3-{(R)-1-[4-(3-Amino-1H-pyrazolo[3,4-b]pyrazin-5-yl)-phenyl]-ethylamino}-6-cyano-pyrazine-2-carboxylic acid [(S)-1-(3,4-difluoro-phenyl)-ethyl]-amide] | < 100 nM | < 1000 nM | – | – | –
N#Cc1cnc(NC/C=C/c2ccc3c(c2)NC(=O)/C3=C\c2cnc[nH]2)c(C(=O)O)c1 [Example 15.16, 2-((E)-3-((Z)-3-((1H-imidazol-5-yl)methylene)-2-oxoindolin-6-yl)allylamino)-5-cyanonicotinic acid] | – | – | 100 to 1000 nM | > 10000 nM | –
O=C1Nc2cc(OCCNc3ncccc3C(=O)NCc3ccc(F)c(F)c3)ccc2/C1=C/c1cnc[nH]1 [Example 22, (Z)-2-(2-(3-((1H-imidazol-5-yl)methylene)-2-oxoindolin-6-yloxy)ethylamino)-N-(3,4-difluorobenzyl)nicotinamide] | – | – | < 100 nM | < 1000 nM | –
Nc1ncnc2ccc(-c3ccc(CNc4ncccc4C(=O)Nc4cc(F)c(F)c(F)c4)s3)cc12 [Example 3.40, 2-({[5-(4-aminoquinazolin-6-yl)thiophen-2-yl]methyl}amino)-N-(3,4,5-trifluorophenyl) pyridine-3-carboxamide (TFA salt)] | – | – | 100 to 1000 nM | 1000 to 10000 nM | –
CN(C)/C=N/c1cnc(NCc2ccc(-c3ccc4ncnc(N)c4c3)s2)c(C(=O)NCc2ccc(F)c(F)c2)c1 [Example 8.6.5, 2-({[5-(4-aminoquinazolin-6-yl)thiophen-2-yl]methyl}amino)-N-(3,4-difluorobenzyl)-5-{[(E)-(dimethylamino)methylidene]amino}pyridine-3-carboxamide] | – | – | 100 to 1000 nM | – | 1000 to 10000 nM
C[C@H](NC(=O)c1cccnc1NCc1ccc(-c2cc3c(N)ncnc3cn2)s1)c1ccc(F)cc1 [Example 2.13.1, (S)-2-(((5-(4-aminopyrido[3,4-d]pyrimidin-6-yl)thiophen-2-yl)methyl)amino)-N-(1-(4-fluoro-phenyl)ethyl)nicotinamide] | – | – | 100 to 1000 nM | – | 1000 to 10000 nM
Nc1ncnc2ccc(-c3ccc(CNc4ncccc4C(=O)NCc4ccc(C(F)(F)F)o4)s3)cc12 [Example 3.28, 2-({[5-(4-aminoquinazolin-6-yl)thiophen-2-yl]methyl}amino)-N-{[5-(trifluoromethyl)furan-2-yl]methyl}pyridine-3-carboxamide (bis TFA salt)] | – | – | 1000 to 5000 nM | – | > 10000 nM
C[C@H](NC(=O)c1cccnc1NCc1ccc(-c2ccc3ncnc(N4CC(O)C4)c3c2)s1)c1ccc(F)c(F)c1 [Example 4.34] | – | – | < 100 nM | 1000 to 10000 nM | –
O=C(NCc1ccc(F)c(F)c1)c1cc(C(F)(F)F)cnc1NCc1ccc(-c2cnc(NCCO)cn2)cc1 [Example 229, N-(3,4-difluorobenzyl)-2-(4-(5-(2-hydroxyethylamino)pyrazin-2-yl)benzylamino)-5-(trifluoromethyl)nicotinamide] | 100 to 1000 nM | 1000 to 10000 nM | – | – | –
O=C(NCc1ccc(C(F)(F)F)cc1)c1cccnc1NCc1ccc(-c2c[nH]c3ncccc23)s1 [Example 1.18] | – | – | 1000 to 5000 nM | > 10000 nM | –
C[C@H](NC(=O)c1cc(C(F)(F)F)cnc1NCc1ccc(-c2ccc3ncnc(N)c3c2)s1)c1ccc(F)c(F)c1 [Example 8.12.6, 2-({[5-(4-aminoquinazolin-6-yl)thiophen-2-yl]methyl}amino)-N-[(1S)-1-(3,4-difluorophenyl)ethyl]-5-(trifluoromethyl)pyridine-3-carboxamide] | – | – | < 100 nM | < 1000 nM | –
C[C@H](NC(=O)c1cccnc1NCc1ccc(-c2ccc3nc(N)[nH]c3c2)s1)c1ccc(F)cc1 [Example 2.21, (S)-2-(((5-(2-amino-1H-benzo[d]imidazol-6-yl)thiophen-2-yl)methyl)amino)-N-(1-(4-fluorophenyl)ethyl)nicotinamide] | – | – | 1000 to 5000 nM | > 10000 nM | –
Nc1ncnc2ccc(-c3ccc(CNc4nc5c(cc4C(=O)NCc4ccc(F)c(F)c4)CCC5)s3)cc12 [Ex. 8.15.1, 2-({[5-(4-aminoquinazolin-6-yl)thiophen-2-yl]methyl}amino)-N-(3,4-difluorobenzyl)-6,7-dihydro-5H-cyclopenta [b]pyridine-3-carboxamide] | – | – | 100 to 1000 nM | 1000 to 10000 nM | –
C[C@H](NC(=O)c1nc(C#N)cnc1NCc1ccc(-c2ccc3c(N)ncnn23)cc1)c1ccc(F)c(F)c1 [Example 181, 3-[4-(4-Amino-pyrrolo [2,1-f][1,2,4]triazin-7-yl)-benzylamino]-6-cyano-pyrazine-2-carboxylic acid [(S)-1-(3,4-difluoro-phenyl)-ethyl]-amide] | < 100 nM | < 1000 nM | – | – | –
C[C@H](NC(=O)c1cn(C)nc1NCc1ccc(-c2ccc3ncnc(N)c3c2)s1)c1ccc(F)c(F)c1 [Example 11.4, (S)-3-(((5-(4-aminoquinazolin-6-yl)thiophen-2-yl)methyl)amino)-N-(1-(3,4-difluorophenyl)ethyl) 1-methyl-1H-pyrazole-4-carboxamide] | – | – | < 100 nM | 1000 to 10000 nM | –
CNC(=O)c1cc(S(=O)(=O)N2CCN(C)CC2)cnc1NCc1ccc(-c2ccc3ncnc(N)c3c2)s1 [Example 8.6.12, 2-(((5-(4-aminoquinazolin-6-yl)thiophen-2-yl)methyl)amino)-N-methyl-5-(4-methylpiperazin-1-ylsulfonyl)nicotinamide] | – | – | > 5000 nM | > 10000 nM | –
N#Cc1cnc(NCc2ccc(Oc3cc(N)ncn3)cc2)c(C(=O)NCc2ccc(F)c(F)c2)c1 [Example 314, 2-(4-(6-aminopyrimidin-4-yloxy)benzylamino)-5-cyano-N-(3,4-difluorobenzyl)nicotinamide] | 1000 to 5000 nM | > 10000 nM | – | – | –
CC(C)Oc1cc(CNc2ncccc2C(=O)NCc2ccc(F)c(F)c2)cc(-c2c[nH]c3ncccc23)c1 [Example 5.7, N-(3,4-difluorobenzyl)-2-(3-isopropoxy-5-(1H-pyrrolo[2,3-b]pyridin-3-yl)benzylamino)nicotinamide] | – | – | < 100 nM | 1000 to 10000 nM | –
C[C@H](NC(=O)c1cccnc1N[C@@H](COc1ccc2c(c1)[nH]c(=O)n2C)c1ccccc1)c1ccc(F)c(F)c1 [Example 16.13, N—((S)-1-(3,4-difluorophenyl)ethyl)-2-((R)-2-(1-methyl-2-oxo-2,3-dihydro-1H-benzo[d]imidazol-5-yloxy)-1-phenylethylamino)nicotinamide] | – | – | < 100 nM | 1000 to 10000 nM | –
Nc1n[nH]c2ncc(-c3ccc(CNc4ncc(C(F)(F)F)cc4C(=O)NC4CCC(F)(F)CC4)cc3)cc12 [Example 284, 2-(4-(3-amino-1H-pyrazolo [3,4-b]pyridin-5-yl)benzylamino)-N-(4,4-difluorocyclohexyl)-5-(trifluoromethyl)nicotinamide] | > 5000 nM | 1000 to 10000 nM | – | – | –
Cn1cnc2cnc(-c3ccc(CNc4ncccc4C(=O)NCc4ccc(F)c(F)c4)s3)cc21 [Example 8.14.3, N-(3,4-difluorobenzyl)-2-({[5-(1-methyl-1H-imidazo [4,5-c]pyridin-6-yl)thiophen-2-yl]methyl}amino)pyridine-3-carboxamide] | – | – | > 5000 nM | 1000 to 10000 nM | –
CC(C)Oc1cc(CNc2ncccc2C(=O)NCc2cccc(F)c2)cc(-c2c[nH]c3ncc(C(=O)NC4CC4)cc23)c1 [Example 4.1.4, N-cyclopropyl-3-{3-[({3-[(3-fluorobenzyl)carbamoyl]pyridin-2-yl}amino)methyl]-5-(propan-2-yloxy)phenyl}-1H-pyrrolo [2,3-b]pyridine-5-carboxamide] | – | – | < 100 nM | 1000 to 10000 nM | –
C[C@H](NC(=O)c1cccnc1NCc1ccc(-c2ccc(N)nc2)cc1)c1ccc(F)c(F)c1 [Example 369, (S)-2-(4-(6-aminopyridin-3-yl)benzylamino)-N-(1-(3,4-difluorophenyl)ethyl) nicotinamide] | < 100 nM | 1000 to 10000 nM | – | – | –
C[C@H](NC(=O)c1cc(C#N)cnc1NCc1ccc(-c2cnc(N)c(CCCN)n2)cc1)c1ccc(F)cc1 [Example 70, 2-{4-[5-Amino-6-(3-amino-propyl)-pyrazin-2-yl]-benzylamino}-5-cyano-N-[(S)-1-(4-fluoro-phenyl)-ethyl]-nicotinamide] | < 100 nM | < 1000 nM | – | – | –
Cn1cnc2cnc(-c3ccc(CNc4nc5ccccc5cc4C(=O)NCc4ccc(F)c(F)c4)s3)cc21 [Example 8.14.2, N-(3,4-difluorobenzyl)-2-({[5-(1-methyl-1H-imidazo [4,5-c]pyridin-6-yl)thiophen-2-yl]methyl}amino)quinoline-3-carboxamide] | – | – | > 5000 nM | > 10000 nM | –
NC(=O)c1cc(CNc2ncccc2C(=O)NCc2ccc(F)c(F)c2)ccc1-n1ccnc1 [Example 50, 2-(3-carbamoyl-4-(1H-imidazol-1-yl)benzylamino)-N-(3,4-difluorobenzyl)nicotinamide] | > 5000 nM | > 10000 nM | – | – | –
